From patent publication US20260315447A1, “COMBINATION THERAPY WITH A MTOR INHIBITOR AND A MULTI-TYROSINE KINASE INHIBITOR FOR TREATING SOFT TISSUE SARCOMA” (ADDi Bioscience, Inc., priority 2023, published 2026)
“Also recorded” adds a separate entry of the source.

Tests used:
mTORCI = settings: cited from earlier work
mTORC2 = settings: cited from earlier work
[1] = test system: Human serum albumin (HSA); settings: cited from earlier work
human plasma proteins = settings: cited from earlier work
[2] = Phase I study of oral pazopanib and intravenous nab-sirolimus: safety (adverse events, dose-limiting toxicity, recommended dose); assay type: in vivo, human; settings: by mouth daily, in combination with nab-sirolimus 30 mg/m^2
Excerpt: This was a phase I study designed to determine the safety and feasibility of a combination of oral pazopanib hydrochloride and intravenous nab-sirolimus. To obtain preliminary information regarding efficacy, the study had limited enrollment to those patients with advanced/unresectable STS for whom single agent pazopanib was indicated as a therapy.
The primary endpoint of the study was the determination of a maximum-tolerated dose (MTD) and recommended Phase 2 dose of nab-sirolimus combined with pazopanib. Secondary endpoints included characterization of adverse events of the nab-sirolimus/pazopanib combination and descriptive characterization of clinical benefit of the nab-sirolimus/pazopanib combination (objective responses, progression-free survival duration, and clinical benefit rates at 3 and 6 months). Correlative endpoints were included to evaluate the correlation of clinical benefit with baseline mTOR pathway activation status, as assessed by immunohistochemistry for phosphorylated-S6 ribosomal protein, correlation of clinical benefit with baseline tumoral expression of Serum Protein Acidic and Rich in Cysteine (SPARC)/Osteonectin, as assessed by immunohistochemistry, and pharmacokinetics of nab-sirolimus in combination with pazopanib.
If no DLT occurred after two doses, escalation to the next dose level was permitted. […]

soft-tissue sarcoma = settings: single agent pazopanib, soft-tissue sarcoma patients; cited from earlier work

## COc1cccc2cc(-c3nc([C@H]4CC[C@H](C(=O)O)CC4)n4ncnc(N)c34)[nH]c12 [OSI-027]
mTORCI
  IC50: 22 nM
mTORC2
  IC50: 65 nM

## CO[C@H]1C[C@@H]2CC[C@@H](C)[C@@](O)(O2)C(=O)C(=O)N2CCCC[C@H]2C(=O)O[C@H]([C@H](C)C[C@@H]2CC[C@@H](O)[C@H](OC)C2)CC(=O)[C@H](C)/C=C(\C)[C@@H](O)[C@@H](OC)C(=O)[C@H](C)C[C@H](C)/C=C/C=C/C=C/1C [Rapamycin, rapamycin]
[1]
  binding to HSA: bind HSA

## CC(=O)O[C@@]12CO[C@@H]1C[C@H](O)[C@@]1(C)C(=O)[C@H](O)C3=C(C)[C@@H](OC(=O)[C@H](O)[C@@H](NC(=O)OC(C)(C)C)c4ccccc4)C[C@@](O)([C@@H](OC(=O)c4ccccc4)[C@H]21)C3(C)C [docetaxel]
Human plasma proteins
  binding to human plasma proteins: bind to human plasma proteins

## Cc1ccc(Nc2nccc(N(C)c3ccc4c(C)n(C)nc4c3)n2)cc1S(N)(=O)=O [pazopanib]
[2]
  Recommended Phase 2 dose of pazopanib: 400 mg
soft-tissue sarcoma
  overall survival compared to placebo control: did not have a meaningful improvement in overall survival rate; also recorded: not found to provide a significant difference in overall survival
  response rate: ~6%

## CC(C)c1cccc(C(C)C)c1O [propofol]
[1]
  binding to HSA: bind HSA
